Source: US9816104B2, “Compositions and methods for deploying a transgenic refuge as a seed blend” (priority 2000, dated 2017)

System: western and northern corn rootworm
Assay: Field trial, corn rootworm damage by Iowa class and synergy test, Example 3
Assay type: in vivo
From the text: A field trial was established and completed in accordance with pertinent protocols and in conformance with USDA notification requirements. The purpose of the trial was to determine the efficacy of transgenic event Cry3Bb.11231 in corn seed in combination with corn rootworm seed treatments using imidacloprid.
For each growing site that was selected, the plot design included the following:
The following seed treatment combinations were used for each growing area:
All seed treatments with pesticides were carried out as described in Example 1. In seed treatment number 1 and 2, Gaucho® was used for wire worm protection, but at levels sufficiently low that it would be expected to have no effect on corn rootworms (i.e., at a treatment level of about 60 gm of active/100 kg seed or 0.16 mg active/kernel), otherwise, seed receiving treatment number 2 had only transgenic event Cry3Bb.11231 and no pesticide treatment that would be expected to be effective against corn rootworm.
For seeds having treatments numbered 3 through 5, the pesticides were applied by the methods described in Example 1. For seeds having treatment numbers 6 and 7, commercially available Force® 3G and Lorsban® 15G were applied to the soil in a 5″ band at the time of sowing. The levels of application are as shown and are within the ranges recommended for standard commercial practice.
Corn seeds to be tested were planted and grown at four different locations across several Midwestern states in the United States corn belt according to the protocol described above.
The determination of damage by corn root worm was made according to the protocol described in Example 2.
Cry3Bb.11231 transgenic event was tested for possible synergy at a level of rootworm damage of 3-6. In the first test, shown in Table 2, the percentage of test plants having damage levels of from 3 to 6, on the Iowa 1-6 Scale, was determined for the control and for seeds treated with the pesticide at two levels, and for seeds having the transgenic event, alone and in combination. The following formula was then used to calculate a “synergy threshold”: (% of control Cry3Bb.11231)*(% of control imidacloprid treatment)/100.
This threshold was compared against the percent of control for the treatment combination (i.e., Cry3Bb.11231 with imidacloprid @ 400 gm/100 kg). If the treatment combination percent of control was below the threshold, then it was concluded that there was synergy.
It was believed that the measurement of rootworm damage at higher damage levels (i.e., levels 3-6) is a useful indicator that correlates with subsequent yield loss due to such damage. The reason for this is that rootworm damage at levels 1 and 2 seldom causes corn plants to fall over and lodge, and such minimal root loss is not believed to reduce the number or weight of kernels per ear. However, root damage at levels of 3 and above increasingly causes lodging and loss of yield. Therefore, it is believed that the summed damage levels of 3-6 (and in some cases, 4-6 and 5 and 6), provides a useful indication of the effect of corn rootworm damage on subsequent corn yield.

SMILES: O=[N+]([O-])NC1=NCCN1Cc1ccc(Cl)nc1 [Imidacloprid, 1-[(6-chloro-3-pyridinyl)methol]-N-nitro-2-imidazolidinimime]
- effectiveness against corn rootworm damage (imidacloprid at 400 gm/100 kg of seed): effective against corn rootworm damage
- CORN ROOTWORM DAMAGE IN EACH IOWA CLASS (IOWA 1-6 SCALE) 1 (number of plants in Iowa class 1, imidacloprid at 400 g/100 kg seed): 3
- CORN ROOTWORM DAMAGE IN EACH IOWA CLASS (IOWA 1-6 SCALE) 2 (number of plants in Iowa class 2, imidacloprid at 400 g/100 kg seed): 15
- CORN ROOTWORM DAMAGE IN EACH IOWA CLASS (IOWA 1-6 SCALE) 3 (number of plants in Iowa class 3, imidacloprid at 400 g/100 kg seed): 36
- CORN ROOTWORM DAMAGE IN EACH IOWA CLASS (IOWA 1-6 SCALE) 4 (number of plants in Iowa class 4, imidacloprid at 400 g/100 kg seed): 21
- CORN ROOTWORM DAMAGE IN EACH IOWA CLASS (IOWA 1-6 SCALE) 5 (number of plants in Iowa class 5, imidacloprid at 400 g/100 kg seed): 5
- CORN ROOTWORM DAMAGE IN EACH IOWA CLASS (IOWA 1-6 SCALE) 6 (number of plants in Iowa class 6, imidacloprid at 400 g/100 kg seed): 0
